tested on: Venturia inaequalis; experiment: Venturia test (apple)/protective; type: in vivo; conditions: protective, application rate 100 g/ha, evaluation ten days after inoculation
Protocol: Venturia Test (Apple)/Protective Solvent: • 24.5 parts by weight acetone • 24.5 parts by weight dimethyl acetamide Emulsifier: 1 part by weight alkyl aryl polyglycol ether To produce an appropriate active ingredient preparation, one part by weight of the active substance is mixed with the specified quantities of solvent and emulsifying agent, and the concentrate is diluted with water to the desired concentration. Young plants are sprayed with the active ingredient preparation at the specified application rate to test the effectiveness of protection. After the sprayed coating has dried, the plants are inoculated with an aqueous conidia suspension of the apple scab pathogen Venturia inaequalis and are then kept in an incubator at 20° C. and 100% relatively humidity for one day. Then the plants are placed in the greenhouse at about 21° C. with relative humidity of about 90%. The evaluation is performed ten days after the inoculation. A degree of effectiveness rating of 0% corresponds to the control, with 100% indicating no infestation observed.

Structure (SMILES) | Degree of effectiveness in %
CC(CCc1cc(Cl)ccc1NC(=O)c1cn(C)nc1C(F)F)C(F)(F)F (stereo not drawn) | 93%
CCC(Cl)CC(C)c1ccccc1NC(=O)c1c(C)nn(C)c1F (stereo not drawn) [drawing 85] | 100%
CCC(Cl)CC(C)c1ccccc1NC(=O)c1cn(C)nc1C(F)F (stereo not drawn) [drawing 86] | 100%
CC(CCc1ccccc1NC(=O)c1ccccc1I)C(F)(F)F (stereo not drawn) [drawing 87] | 94%
Cc1nn(C)c(F)c1C(=O)Nc1ccccc1CCC(C)C(F)(F)F (stereo not drawn) [drawing 88] | 94%
CC(CCc1ccccc1NC(=O)c1cn(C)nc1C(F)F)C(F)(F)F (stereo not drawn) [drawing 89] | 97%

tested on: Alternaria solani; experiment: Alternaria test (tomato)/protective; type: in vivo; conditions: protective, application rate 750 g/ha, evaluation seven days after inoculation
Protocol: Alternaria Test (Tomato)/Protective Solvent: 49 parts by weight N,N-dimethyl formamide Emulsifier: 1 part by weight alkyl aryl polyglycol ether To produce an appropriate active ingredient preparation, one part by weight of the active substance is mixed with the specified quantities of solvent and emulsifying agent, and the concentrate is diluted with water to the desired concentration. Young tomato plants are sprayed with the active ingredient preparation at the specified application rate to test the effectiveness of protection. One day after treatment, the plants are inoculated with a spore suspension of Alternaria solani and are kept for 24 hours at 100% relatively humidity and 20° C. Subsequently, the plants are kept at 96% relatively humidity and a temperature of 20° C. The evaluation is performed seven days after the inoculation. A degree of effectiveness rating of 0% corresponds to the control, with 100% indicating no infestation observed.

Structure (SMILES) | Degree of effectiveness in %
Cc1nn(C)c(F)c1C(=O)Nc1ccc(Cl)cc1CCC(C)C(F)(F)F (stereo not drawn) | 90%
CCC(Cl)CC(C)c1ccccc1NC(=O)c1c(C)nn(C)c1F (stereo not drawn) [drawing 97] | 100%
CCC(Cl)CC(C)c1ccccc1NC(=O)c1cn(C)nc1C(F)F (stereo not drawn) [drawing 98] | 95%

tested on: Botrytis cinerea; experiment: Botrytis test (bean)/protective; type: in vivo; conditions: protective, application rate 500 g/ha, evaluation two days after inoculation
Protocol: Botrytis Test (Bean)/Protective Solvent: • 24.5 parts by weight acetone • 24.5 parts by weight dimethyl acetamide Emulsifier: 1 part by weight alkyl aryl polyglycol ether To produce an appropriate active ingredient preparation, one part by weight of the active substance is mixed with the specified quantities of solvent and emulsifying agent, and the concentrate is diluted with water to the desired concentration. Young plants are sprayed with the active ingredient preparation at the specified application rate to test the effectiveness of protection. After the sprayed coating has dried, two small pieces of agar with cultured Botrytis cinerea are placed on each leaf. The inoculated plants are placed in a darkened chamber at about 20° C. and 100% relatively humidity. Two days after the inoculation, the size of the infestation spots on the leaves is evaluated. A degree of effectiveness rating of 0% corresponds to the control, with 100% indicating no infestation observed.

Structure (SMILES) | Degree of effectiveness in %
CCC(Cl)CC(C)c1ccccc1NC(=O)c1c(C)nn(C)c1F (stereo not drawn) [drawing 90] | 82%
CCC(Cl)CC(C)c1ccccc1NC(=O)c1cn(C)nc1C(F)F (stereo not drawn) [drawing 91] | 100%
CC(CCc1ccccc1NC(=O)c1cn(C)nc1C(F)F)C(F)(F)F (stereo not drawn) [drawing 92] | 99%

tested on: not listed separately; experiment: log P by HPLC on reverse phase column (C18), acid range; type: physicochemical; conditions: pH 2.3, HPLC C18, 43° C.
Protocol: The specified log P values are determined by HPLC on a reverse phase column (C18) in accordance with EEC Directive 79/831 Annex V.A8. Temperature: 43° C. Eluents for the measurement in the acid range (pH 2.3): 0.1% aqueous phosphoric acid, acetonitrile; linearer gradient of 10% acetonitrile to 90% acetonitrile. Calibration is performed with unbranched alkyl-2-ones (with 3 to 16 carbon atoms) with known log P values (determination of the log P values based on retention times by linear interpolation between two sequential alkyl ketones).

chromatographic logP | Structure (SMILES)
4.08 | CC(CCc1cc(Cl)ccc1NC(=O)c1ccccc1C(F)(F)F)C(F)(F)F (stereo not drawn) [Example 1, N-[4-chloro-2-(4,4,4-trifluoro-3-methylbutyl)-phenyl]-2-trifluoromethylbenzamide]
2.93 | CC(CCc1ccccc1NC(=O)c1cn(C)nc1C(F)F)C(F)(F)F (stereo not drawn) [Example 2, 3-difluoromethyl-1-methyl-1H-pyrazole-4-carboxyic acid, [2-(4,4,4-trifluoro-3-methylbutyl)-phenyl]-amide]

tested on: Puccinia recondita; experiment: Puccinia test (wheat)/protective; type: in vivo; conditions: protective, application rate 500 g/ha, evaluation ten days after inoculation
Protocol: Puccinia Test (Wheat)/Protective Solvent: 50 parts by weight N,N-dimethyl acetamide Emulsifier: 1 part by weight alkyl aryl polyglycol ether To produce an appropriate active ingredient preparation, one part by weight of the active substance is mixed with the specified quantities of solvent and emulsifying agent, and the concentrate is diluted with water to the desired concentration. Young plants are sprayed with the active ingredient preparation at the specified application rate to test the effectiveness of protection. After the sprayed coating has dried, the plants are sprayed with a conidia suspension of Puccinia recondita. The plants are kept in an incubator at 20° C. and 100% relatively humidity for 48 hours. Then the plants are placed in a greenhouse at a temperature of about 20° C. and a relatively humidity of 80%, in order to promote the development of rust spots. The evaluation is performed ten days after the inoculation. A degree of effectiveness rating of 0% corresponds to the control, with 100% indicating no infestation observed.

Structure (SMILES) | Degree of effectiveness in %
CCC(Cl)CC(C)c1ccccc1NC(=O)c1cn(C)nc1C(F)F (stereo not drawn) [drawing 93] | 100%
CC(CCc1ccccc1NC(=O)c1ccccc1I)C(F)(F)F (stereo not drawn) [drawing 94] | 100%
CC(CCc1ccccc1NC(=O)c1cn(C)nc1C(F)F)C(F)(F)F (stereo not drawn) [drawing 95] | 100%

tested on: Sphaerotheca fuliginea; experiment: Sphaerotheca test (cucumber)/protective; type: in vivo; conditions: protective, application rate 100 g/ha, evaluation seven days after inoculation
Protocol: Sphaerotheca Test (Cucumber)/Protective Solvent: • 24.5 parts by weight acetone • 24.5 parts by weight dimethyl acetamide Emulsifier: 1 part by weight alkyl aryl polyglycol ether To produce an appropriate active ingredient preparation, one part by weight of the active substance is mixed with the specified quantities of solvent and emulsifying agent, and the concentrate is diluted with water to the desired concentration. Young plants are sprayed with the active ingredient preparation at the specified application rate to test the effectiveness of protection. After the sprayed coating has dried, the plants are inoculated with an aqueous spore suspension of Sphaerotheca fuliginea. Then the plants are placed in the greenhouse at about 23° C. with relative humidity of about 70%. The evaluation is performed seven days after the inoculation. A degree of effectiveness rating of 0% corresponds to the control, with 100% indicating no infestation observed.

Structure (SMILES) | Degree of effectiveness in %
CCC(Cl)CC(C)c1ccccc1NC(=O)c1c(C)nn(C)c1F (stereo not drawn) [drawing 80] | 95%
CCC(Cl)CC(C)c1ccccc1NC(=O)c1cn(C)nc1C(F)F (stereo not drawn) [drawing 81] | 100%
Cc1nn(C)c(F)c1C(=O)Nc1ccccc1CCC(C)C(F)(F)F (stereo not drawn) [drawing 82] | 100%
CC(CCc1ccccc1NC(=O)c1cn(C)nc1C(F)F)C(F)(F)F (stereo not drawn) [drawing 83] | 98%

From patent US7910746B2, “Haloalkyl carboxamides” (Bayer CropScience AG, priority 2004, dated 2011)
